Consider ten molecules from patent US8188098B2, “GPR119 receptor agonists” (Hoffmann-La Roche Inc., priority 2008, dated 2012).

Broadly, the EC50 is the concentration needed to bring the measured effect to its halfway point. Low values mean greater potency, high ones weaker potency.

One test deals with T1, GPR119 receptor (Mesocricetus auratus, UniProt A0A1U8CD06).
T1 construct: which endogenously express the GPR119 receptor; host or cells: HIT-T15 hamster pancreatic islet cells
T1 sequence (A0A1U8CD06 1-334): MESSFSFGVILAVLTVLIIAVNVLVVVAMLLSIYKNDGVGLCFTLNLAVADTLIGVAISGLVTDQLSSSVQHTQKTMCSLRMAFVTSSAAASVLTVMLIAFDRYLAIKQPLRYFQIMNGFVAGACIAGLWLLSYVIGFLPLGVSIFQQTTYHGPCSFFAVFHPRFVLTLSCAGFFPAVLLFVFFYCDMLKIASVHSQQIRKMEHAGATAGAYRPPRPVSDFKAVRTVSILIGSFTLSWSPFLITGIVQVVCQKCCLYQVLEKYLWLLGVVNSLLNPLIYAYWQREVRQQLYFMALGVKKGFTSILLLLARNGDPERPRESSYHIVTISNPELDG
Put plainly: cAMP assay in HIT-T15 hamster pancreatic islet cells (functional agonist activity). The class given is cell-based. The following applies: HIT-T15 cells endogenously expressing GPR119; 30 min at 25° C.; intracellular cAMP. A digest of the protocol:
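cAMP immunoassay with luminescent read-out, EC50 fitted, after a 30 min, 25° C agonist incubation in HIT-T15 hamster islet cells expressing GPR119 natively. Medium contained 0.5 mM IBMX and 0.5 mg/ml BSA; 9000 cells/well.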
Regarding `CC(C)OC(=O)N1CCC(n2ncc3c(Oc4ccc(S(C)(=O)=O)cc4)ncnc32)CC1` [Example 21, 4-[4-(4-Methanesulfonyl-phenoxy)-pyrazolo[3,4-d]pyrimidin-1-yl]-piperidine-1-carboxylic acid isopropyl ester], the EC50 was 0.26 µM.

Consider `CC(C)(C)OC(=O)N1CCC(n2ncc3c(Oc4cccnc4)ncnc32)CC1` [Example 91, 4-[4-(Pyridin-3-yloxy)-pyrazolo[3,4-d]pyrimidin-1-yl]-piperidine-1-carboxylic acid tert-butyl ester], for which a half-maximal effect (EC50) was put at 1.2 µM. Same read-out and setting: as for `Cc1ncccc1Oc1ncnc2c1cnn2C1CCN(C(=O)OC2CCC2)CC1` [Example 116, 4-[4-(2-Methyl-pyridin-3-yloxy)-pyrazolo[3,4-d]pyrimidin-1-yl]-piperidine-1-carboxylic acid cyclobutyl ester], the figure is 0.55 µM; as for `Cc1nc(Oc2ccc(S(C)(=O)=O)cc2)c2cnn(C3CCN(C(=O)OC(C)(C)C)CC3)c2n1` [Example 175, 4-[4-(4-Methanesulfonyl-phenoxy)-6-methyl-pyrazolo[3,4-d]pyrimidin-1-yl]-piperidine-1-carboxylic acid tert-butyl ester], 0.028 µM; as for `CC(C)(C)COC(=O)N1CCC(n2ncc3c(Oc4ccc(S(C)(=O)=O)cc4)ncnc32)CC1` [Example 108, 4-[4-(4-Methanesulfonyl-phenoxy)-pyrazolo[3,4-d]pyrimidin-1-yl]-piperidine-1-carboxylic acid 2,2-dimethyl-propyl ester], 0.1 µM. Same read-out and setting: as for `CS(=O)(=O)c1ccc(Oc2ncnc3c2cnn3C2CCN(C(=O)OC3CCCC3)CC2)c(F)c1` [Example 120, 4-[4-(2-Fluoro-4-methanesulfonyl-phenoxy)-pyrazolo[3,4-d]pyrimidin-1-yl]-piperidine-1-carboxylic acid cyclopentyl ester], the figure is 0.031 µM. On the same count and under the same terms, as for `CCc1cc(Oc2ncnc3c2cnn3C2CCN(C(=O)OC(C)(C)C)CC2)nc(C)n1` [Example 103, 4-[4-(6-Ethyl-2-methyl-pyrimidin-4-yloxy)-pyrazolo[3,4-d]pyrimidin-1-yl]-piperidine-1-carboxylic acid tert-butyl ester], the figure is 3.4 µM. For the molecule `COc1ccc(Oc2ncnc3c2cnn3C2CCN(C(=O)OC(C)(C)C)CC2)c(Cl)c1` [Example 44, 4-[4-(2-Chloro-4-methoxy-phenoxy)-pyrazolo[3,4-d]pyrimidin-1-yl]-piperidine-1-carboxylic acid tert-butyl ester], the response was half-maximal at 0.19 µM (EC50). Same read-out and setting: as for `CC(C)OC(=O)N1CCC(n2ncc3c(Oc4ccc(S(C)(=O)=O)cc4F)ncnc32)CC1` [Example 23, 4-[4-(2-Fluoro-4-methanesulfonyl-phenoxy)-pyrazolo[3,4-d]pyrimidin-1-yl]-piperidine-1-carboxylic acid isopropyl ester], the figure is 0.11 µM; as for `CC(C)(C)OC(=O)N1CCC(n2ncc3c(Oc4cnc5[nH]ccc5c4)ncnc32)CC1` [Example 72, 4-[4-(1H-Pyrrolo[2,3-b]pyridin-5-yloxy)-pyrazolo[3,4-d]pyrimidin-1-yl]-piperidine-1-carboxylic acid tert-butyl ester], 1.2 µM.

A further test relates to C57B1/6J mice. The test is described as follows: oral glucose tolerance test (OGTT) in C57B1/6J mice. It counts as in vivo. The conditions noted are these: 30 mg/kg oral gavage, 2 g/kg glucose bolus two hours after dosing; vs vehicle treated mice. Here is the method:
The in vivo activity of selected compounds of the invention was characterized using an oral glucose tolerance test in C57B1/6J mice.
C57B1/6J mice were obtained from Jackson Laboratory (Bar Harbor, Me.) and were maintained in a light-dark cycle with lights on from 0600-1800 hr. The mice were received at age nine weeks and given ad libitum access to diet (LabDiet 5001 chow, PMI Nutrition, Brentwood, Mo.), and were at age 10 weeks at the time of study The experiments were conducted during the light phase of the light-dark cycle. Mice (n=10) were weighed and fasted for a four hour period prior to treatment with GPR119 agonists or formulation vehicle via oral gavage. GPR119 agonists were formulated in Klucel vehicle (2% Klucel LF with 0.1% Tween 80, in water) at a concentration of 4.0 mg/mL and the mice were dosed with a 7.5 mL/kg volume to equal a 30 mg/kg dose. Two hours following dosing, the animals were given an oral glucose tolerance test (OGTT). For the OGTT, the animals were given a 2 g/kg glucose bolus via oral gavage. Blood glucose readings were made immediately prior to the glucose challenge, and 30, 60 and 120 minutes following. […] Area under the curve (AUC) for plots of blood glucose vs. time for the individual mice was calculated by the trapezoidal method. […]
For `CC(C)OC(=O)N1CCC(n2ncc3c(Oc4ccc(S(C)(=O)=O)cc4)ncnc32)CC1` [Example 21, 4-[4-(4-Methanesulfonyl-phenoxy)-pyrazolo[3,4-d]pyrimidin-1-yl]-piperidine-1-carboxylic acid isopropyl ester], the “decrease in mean baseline-subtracted AUC (blood glucose vs. time)” value was determined as 44%.
